Test results taken from the supplement of paper PMC10307832.

How the values were obtained:
Test in all cases: relative viability (nuclei count vs DMSO), 5 days (fraction); higher = more cells survive
[1] = compound: C1COCCN1C2=NC(=NC3=C2OC4=C3C=CC=N4)C5=CC(=CC=C5)NC(=O)C6=CN=C(C=C6)N + CS(=O)(=O)CCNCc1ccc(-c2ccc3ncnc(Nc4ccc(OCc5cccc(F)c5)c(Cl)c4)c3c2)o1 [Lapatinib] (partner 2 µM)
Outline: (§1)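 Nuclei were stained with Hoechst during a one-step fixation (final 0.05% Triton X-100, 1% formaldehyde, 1 ug/ml Hoechst) carried out 5 days after dosing, then counted on 4× images. The cells, lung cancer lines in 1536-well plates, had been dosed by pin tool the day after seeding with one drug alone or a fixed anchor-drug dose plus five library-drug doses (not always all listed) in √10 steps. Relative viability is the nuclei count in treated wells divided by that in vehicle wells, and each value is the median of duplicate plates.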

[2] = compound: C1COCCN1C2=NC(=NC3=C2OC4=C3C=CC=N4)C5=CC(=CC=C5)NC(=O)C6=CN=C(C=C6)N + CS(=O)(=O)N1CCN(Cc2cc3nc(-c4cccc5[nH]ncc45)nc(N4CCOCC4)c3s2)CC1 [Pictilisib] (partner 1 µM)
Outline: as §1

Entinostat + Pictilisib = compound: Nc1ccccc1NC(=O)c1ccc(CNC(=O)OCc2cccnc2)cc1 [Entinostat] + CS(=O)(=O)N1CCN(Cc2cc3nc(-c4cccc5[nH]ncc45)nc(N4CCOCC4)c3s2)CC1 [Pictilisib] (partner 1 µM)
Outline: as §1

Entinostat + Decitabine = compound: Nc1ccccc1NC(=O)c1ccc(CNC(=O)OCc2cccnc2)cc1 [Entinostat] + Nc1ncn([C@H]2C[C@H](O)[C@@H](CO)O2)c(=O)n1 [Decitabine] (partner 2 µM)
Outline: as §1

Cell Line | relative viability ([1]; first compound 0.02 µM) | relative viability ([1]; first compound 0.06325 µM) | relative viability ([1]; first compound 0.2 µM) | relative viability ([1]; first compound 0.6325 µM) | relative viability ([1]; first compound 2 µM) | relative viability ([2]; first compound 0.02 µM) | relative viability ([2]; first compound 0.06325 µM) | relative viability ([2]; first compound 0.2 µM) | relative viability ([2]; first compound 0.6325 µM) | relative viability ([2]; first compound 2 µM) | relative viability (Entinostat + Pictilisib; first compound 0.02 µM) | relative viability (Entinostat + Pictilisib; first compound 0.06325 µM) | relative viability (Entinostat + Pictilisib; first compound 0.2 µM) | relative viability (Entinostat + Pictilisib; first compound 0.6325 µM) | relative viability (Entinostat + Pictilisib; first compound 2 µM) | relative viability (Entinostat + Decitabine; first compound 0.02 µM) | relative viability (Entinostat + Decitabine; first compound 0.06325 µM) | relative viability (Entinostat + Decitabine; first compound 0.2 µM) | relative viability (Entinostat + Decitabine; first compound 0.6325 µM) | relative viability (Entinostat + Decitabine; first compound 2 µM)
201T | 0.957 | 1.02 | 0.984 | 1.04 | 1.01 | 0.661 | 0.66 | 0.654 | 0.735 | 0.696 | 0.708 | 0.662 | 0.625 | 0.532 | 0.467 | 0.82 | 0.692 | 0.777 | 0.401 | 0.406
A549 | 1.07 | 0.925 | 0.911 | 0.921 | 0.468 | 0.628 | 0.577 | 0.397 | 0.391 | 0.24 | 0.551 | 0.555 | 0.451 | 0.364 | 0.2 | 0.27 | 0.251 | 0.205 | 0.177 | 0.0922
A-427 | 1.06 | 1.04 | 0.91 | 1.1 | 0.677 | 0.696 | 0.621 | 0.675 | 0.653 | 0.507 | 0.67 | 0.837 | 0.65 | 0.757 | 0.589 | 0.536 | 0.507 | 0.528 | 0.477 | 0.438
ABC-1 | 1.38 | 1.14 | 1.07 | 1.21 | 0.871 | 0.711 | 0.717 | 0.773 | 0.768 | 0.609 | 0.668 | 1.07 | 0.7 | 0.452 | 0.279 | 1.04 | 1.41 | 1.1 | 0.91 | 0.626
BEN | 0.765 | 0.702 | 0.744 | 0.673 | 0.588 | 0.587 | 0.556 | 0.597 | 0.501 | 0.589 | 0.594 | 0.673 | 0.453 | 0.282 | 0.188 | 0.774 | 0.956 | 0.657 | 0.447 | 0.345
CAL-12T | 0.663 | 0.701 | 0.632 | 0.604 | 0.472 | 0.464 | 0.479 | 0.391 | 0.356 | 0.455 | 0.537 | 0.546 | 0.544 | 0.303 | 0.323 | – | – | – | – | –
COR-L23 | 0.946 | 1.26 | 1.15 | 1.24 | 0.451 | 1.02 | 1.21 | 0.845 | 0.843 | 0.574 | 0.714 | 0.728 | 0.588 | 0.257 | 0.141 | 0.402 | 0.413 | 0.356 | 0.217 | 0.141
COR-L 105 | 0.391 | 0.318 | 0.34 | 0.346 | 0.289 | 0.433 | 0.351 | 0.389 | 0.344 | 0.33 | 0.414 | 0.425 | 0.38 | 0.346 | 0.262 | 0.64 | 0.641 | 0.595 | 0.466 | 0.337
Calu-6 | 1.3 | 1.1 | 1.12 | 0.98 | 0.742 | 1.03 | 0.932 | 0.87 | 0.888 | 0.472 | 0.814 | 0.934 | 0.864 | 0.615 | 0.383 | – | – | – | – | –
ChaGo-K-1 | – | – | – | – | – | 0.789 | 0.61 | 0.547 | 0.633 | 0.624 | 0.917 | 0.645 | 0.68 | 0.411 | 0.471 | 0.572 | 0.545 | 0.543 | 0.443 | 0.45
EBC-1 | 0.178 | 0.212 | 0.216 | 0.17 | 0.268 | 0.409 | 0.432 | 0.307 | 0.295 | 0.293 | 0.313 | 0.363 | 0.193 | 0.12 | 0.0976 | – | – | – | – | –
EKVX | 0.189 | 0.181 | 0.221 | 0.215 | 0.207 | 0.408 | 0.408 | 0.44 | 0.379 | 0.439 | 0.441 | 0.517 | 0.36 | 0.298 | 0.217 | 0.307 | 0.351 | 0.281 | 0.207 | 0.244
EMC-BAC-2 | 0.932 | 0.931 | 0.94 | 0.897 | 0.733 | 0.495 | 0.526 | 0.516 | 0.523 | 0.465 | 0.579 | 0.595 | 0.628 | 0.352 | 0.289 | 0.988 | 0.916 | 0.815 | 0.486 | 0.364
EPLC-272H | 0.886 | 1.02 | 0.674 | 0.825 | 0.53 | 0.292 | 0.297 | 0.264 | 0.308 | 0.288 | 0.419 | 0.37 | 0.327 | 0.219 | 0.254 | 0.409 | 0.383 | 0.325 | 0.25 | 0.218
H3255 | 0.241 | 0.238 | 0.23 | 0.238 | 0.293 | 0.417 | 0.495 | 0.458 | 0.505 | 0.432 | 0.475 | 0.395 | 0.301 | 0.202 | 0.168 | 0.58 | 0.556 | 0.493 | 0.268 | 0.218
HARA | 0.749 | 0.699 | 0.803 | 0.707 | 0.502 | 0.273 | 0.319 | 0.329 | 0.326 | 0.291 | 0.428 | 0.533 | 0.442 | 0.368 | 0.219 | 0.602 | 0.521 | 0.557 | 0.456 | 0.276
HCC-15 | 0.865 | 0.883 | 0.811 | 0.818 | 0.511 | 0.735 | 0.76 | 0.713 | 0.742 | 0.527 | 0.714 | 0.663 | 0.626 | 0.188 | 0.266 | 0.622 | 0.508 | 0.46 | 0.261 | 0.151
